{
  "source": "patent US20250316361A1",
  "about": "“SYSTEMS AND METHODS FOR ESTIMATING, FROM FOOD FREQUENCY QUESTIONNAIRE BASED NUTRIENTS INTAKE DATA, THE RELATIVE AMOUNTS OF FAECALIBACTERIUM PRAUSNITZII (FPRAU) IN THE GUT MICROBIOME ECOSYSTEM AND ASSOCIATED RECOMMENDATIONS TO IMPROVE FAECALIBACTERIUM PRAUSNITZII” (SOCIETE DES PRODUITS NESTLE S.A., priority 2021, published 2025)",
  "key": {"[1]": {"tested_on": "Faecalibacterium prausnitzii (F. prau)", "assay": "in vitro stool fermentation, quantitative PCR specifically targeting F. prau", "format": "cell-based", "conditions": "stool inoculum in minimal media, anaerobic, 37 degrees Celsius", "description": "(§1) Stool samples were collected from a healthy adult donor under human study protocol. Upon the reception of the stool samples, small aliquots were prepared with storage buffer (PBS and 10% glycerol) and were stored at −80 degrees Celsius before use. For each experiment, 250 μL of stool aliquot was inoculated in a 10 mL Hungate tube filled with a minimal bacteria culture media under a strict anaerobic condition (Oxygen <3 ppm) inside of an anaerobic chamber. Different nutrients or nutrient combinations, shown in Table 1, were added to the culture media at time 0 and the tubes were incubated at 37 degrees Celsius for 24 or 48 hours. The growth of Faecalibacterium prausnitzii (F. prau) was examined by two methods: quantitative PCR specifically targeting F. prau and 16S microbial rRNA gene sequencing.\nFirst, we examined the absolute quantity of F. prau in the community after 24 or 48 hours (FIGS. 6A and 6B)."}, "[2]": {"tested_on": "Faecalibacterium ASVs (ASV6)", "assay": "in vitro stool fermentation, 16S microbial rRNA gene sequencing of Faecalibacterium ASVs", "format": "cell-based, Faecalibacterium prausnitzii", "description": "as §1\nF. prau is heterogenic and genetically diverse. Thus, in this next experiment, we examined if nutrient or nutrient combinations favor specific F. prau to grow in a mixed community."}},
  "data": [
    {"substance": "inulin", "values": [
      {"measurement": "absolute quantity of F. prau in the community versus control", "setting": "[1]; 24 hours, FIG. 6A", "result": "at least twice as much as control"},
      {"measurement": "absolute quantity of F. prau in the community", "setting": "[1]; 48 hours, FIG. 6B", "result": "able to maintain a high amount of F. prau"},
      {"measurement": "response of Faecalibacterium ASV1, 6, 9, 12 and 13", "setting": "[2]; 14 genetically different Faecalibacterium found, time not stated", "result": "responded positively"},
      {"measurement": "response of F. prau ASV6 (figure legend)", "setting": "[2]; samples collected after 24 hours and after 48 hours, FIG. 7", "result": "responded"}
    ]}
  ]
}
